Molecular target: hFXR (Homo sapiens (Human), UniProt Q96RI1)
Experiment: In Vitro FXR Assay (TK), luciferase reporter in transfected CV-1 cells
Format: cell-based
Conditions: TK-ECRE-luc reporter, hFXR/hRXR, 18 hrs, maximum efficacy <25% of Fexaramine control classified as '+'
Experimental: CV-1 cells were seeded at a density of 2,000,000 cells in a T175 flask with DMEM+10% charcoal double-stripped FBS and incubated at 37° C. in 5% CO2 for 18 h (O/N).
After 18 h of incubation, the medium in the T175 flask was changed with fresh DMEM+10% charcoal super-stripped serum. In a polypropylene tube, 2500 μL OptiMEM (Life Technologies, Cat #31985-062) was combined with expression plasmids for hFXR, hRXR, TK-ECRE-luc and pCMX-YFP. The tube was then briefly vortexed and incubated at room temperature for 5 minutes. Transfection reagent (X-tremeGENE HP from Roche, Cat #06 366 236 001) was added to the OptiMEM/plasmid mixture vortexed and incubated at room temperature for 20 minutes. Following incubation, the transfection reagent/DNA mixture complex was added to cells in the T175 flask and the cells were incubated at 37° C. in 5% CO2 for 18 h (O/N).
Compounds were serially diluted in DMSO and added to transfected CV-1 cells. The cells were then incubated for 18 hrs. The next day cells were lysed and examined for luminescence.

Chain of hFXR (Q96RI1 whole entry): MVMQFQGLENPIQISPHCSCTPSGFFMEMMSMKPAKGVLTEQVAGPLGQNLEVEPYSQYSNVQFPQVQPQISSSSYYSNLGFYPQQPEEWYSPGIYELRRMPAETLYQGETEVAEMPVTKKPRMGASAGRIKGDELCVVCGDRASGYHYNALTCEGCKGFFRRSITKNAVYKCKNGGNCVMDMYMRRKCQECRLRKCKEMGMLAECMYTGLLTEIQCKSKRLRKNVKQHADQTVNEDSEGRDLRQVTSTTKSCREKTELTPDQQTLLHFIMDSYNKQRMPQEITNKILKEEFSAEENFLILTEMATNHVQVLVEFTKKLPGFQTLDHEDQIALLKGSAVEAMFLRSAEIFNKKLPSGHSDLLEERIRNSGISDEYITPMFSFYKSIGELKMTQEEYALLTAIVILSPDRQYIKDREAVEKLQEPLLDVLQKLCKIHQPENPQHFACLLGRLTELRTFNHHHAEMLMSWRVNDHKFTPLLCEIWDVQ
Chain of hFXR (P19793 whole entry partner): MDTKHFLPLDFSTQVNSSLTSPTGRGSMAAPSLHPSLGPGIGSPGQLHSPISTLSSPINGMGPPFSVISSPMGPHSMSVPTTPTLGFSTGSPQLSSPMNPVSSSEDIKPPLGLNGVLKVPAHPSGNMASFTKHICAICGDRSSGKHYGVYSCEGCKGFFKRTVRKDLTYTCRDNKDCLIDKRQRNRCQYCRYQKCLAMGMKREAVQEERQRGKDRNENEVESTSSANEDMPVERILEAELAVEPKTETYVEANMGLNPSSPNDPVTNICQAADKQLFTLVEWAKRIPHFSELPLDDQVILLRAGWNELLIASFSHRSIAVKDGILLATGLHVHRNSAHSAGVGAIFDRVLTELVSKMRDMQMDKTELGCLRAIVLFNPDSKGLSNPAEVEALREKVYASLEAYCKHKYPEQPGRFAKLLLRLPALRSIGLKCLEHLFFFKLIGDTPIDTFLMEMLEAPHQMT

| Structure (SMILES) | EC50 |
| --- | --- |
| COC(=O)c1ccc2c(N(Cc3ccc(-c4ccc(C)nc4)cc3)C(=O)CC(C)(C)C)nccc2c1 [Compound 39, Methyl 1-(3,3-dimethyl-N-(4-(6-methylpyridin-3-yl)benzyl)butanamido)isoquinoline-6-carboxylate] | 1 to 10 µM |
| COC(=O)c1ccc2c(N(Cc3ccc(-c4ccc(CO)cc4)cc3)C(=O)CC(C)(C)C)nccc2c1 [Compound 43, Methyl 1-(N-((4′-(hydroxymethyl)-[1,1′-biphenyl]-4-yl)methyl)-3,3-dimethylbutanamido)isoquinoline-6-carboxylate] | 1 to 10 µM |
| COC(=O)c1ccc2c(N(Cc3ccc(-c4ccc5sc(C)nc5c4)cc3)C(=O)CC(C)(C)C)nccc2c1 [Compound 50, Methyl 1-(3,3-dimethyl-N-(4-(2-methylbenzo[d]thiazol-5-yl)benzyl)butanamido)isoquinoline-6-carboxylate] | 1 to 10 µM |
| COC(=O)c1ccc2c(N(Cc3ccc(-c4ccc5c(c4)CCN5C(=O)OC(C)(C)C)cc3)C(=O)CC(C)(C)C)nccc2c1 [Compound 51, Methyl 1-(N-(4-(1-(tert-butoxycarbonyl)indolin-5-yl)benzyl)-3,3-dimethylbutanamido)isoquinoline-6-carboxylate] | ≥ 10 µM |
| CCOc1ccc(-c2ccc(CN(C(=O)CC(C)(C)C)c3nccc4cc(C(=O)OC)ccc34)cc2)cc1 [Compound 52, Methyl 1-(N-((4′-ethoxy-[1,1′-biphenyl]-4-yl)methyl)-3,3-dimethylbutanamido)isoquinoline-6-carboxylate] | 1 to 10 µM |
| COC(=O)c1ccc2c(N(Cc3ccc(-c4ccc(F)c(OC)c4)cc3)C(=O)CC(C)(C)C)nccc2c1 [Compound 54, Methyl 1-(N-((4′-fluoro-3′-methoxy-[1,1′-biphenyl]-4-yl)methyl)-3,3-dimethylbutanamido)isoquinoline-6-carboxylate] | 1 to 10 µM |
| COC(=O)c1ccc2c(N(Cc3ccc(-c4ccc(OC(F)F)cc4)cc3)C(=O)CC(C)(C)C)nccc2c1 [Compound 57, Methyl 1-(N-((4′-(difluoromethoxy)-[1,1′-biphenyl]-4-yl)methyl)-3,3-dirnethylbutanamido)isoquinoline-6-carboxylate] | 1 to 10 µM |
| COCCOc1ccc(-c2ccc(CN(C(=O)CC(C)(C)C)c3nccc4cc(C(=O)OC)ccc34)cc2)cc1 [Compound 59, Methyl 1-(N-((4′-(2-methoxyethoxy)-[1,1-biphenyl]-4-yl)methyl)-3,3-dimethylbutanamido)isoquinoline-6-carboxylate] | 1 to 10 µM |
| COC(=O)c1ccc2c(N(Cc3ccc(-c4ccc(OCCO)cc4)cc3)C(=O)CC(C)(C)C)nccc2c1 [Compound 60, Methyl 1-(N′-((4′-(2-hydroxyethoxy)-[1,1′-biphenyl]-4-yl)methyl)-3,3-dimethylbutanamido)isoquinoline-6-carboxylate] | 1 to 10 µM |
| COC(=O)c1ccc2c(N(Cc3ccc(-c4ccc(CCO)cc4)cc3)C(=O)CC(C)(C)C)nccc2c1 [Compound 61, Methyl 1-(N-((4′-(2-hydroxyethyl)-[1,1′-biphenyl]-4-yl)methyl)-3,3-dimethylbutanamido)isoquinoline-6-carboxylate] | ≤ 1 µM |

Second part, the compound after the results:

| EC50 | Structure (SMILES) |
| --- | --- |
| ≤ 1 µM | COC(=O)c1ccc2c(N(Cc3ccc(-c4ccc(C5CC5)cc4)cc3)C(=O)CC(C)(C)C)nccc2c1 [Compound 40, Methyl 1-(N-((4′-cyclopropyl-[1,1′-biphenyl]-4-yl)methyl)-3,3-dimethylbutanamido)isoquinoline-6-carboxylate] |
| ≤ 1 µM | COC(=O)c1ccc2c(N(Cc3ccc(-c4ccc(OC(F)(F)F)c(Cl)c4)cc3)C(=O)CC(C)(C)C)nccc2c1 [Compound 41, Methyl 1-(N-((3′-chloro-4′-(trifluoromethoxy)-[1,1′-biphenyl]-4-yl)methyl)-3,3-dimethylbutanamido)isoquinoline-6-carboxylate] |
| ≤ 1 µM | COC(=O)c1ccc2c(N(Cc3ccc(-c4ccc(C#N)c(C)c4)cc3)C(=O)CC(C)(C)C)nccc2c1 [Compound 42, Methyl 1-(N-((4′-cyano-3′-methyl-[1,1′-biphenyl]-4-yl)methyl)-3,3-dimethylbutanamido)isoquinoline-6-carboxylate] |
| ≤ 1 µM | COC(=O)c1ccc2c(N(Cc3ccc(-c4ccc5c(ccn5C)c4)cc3)C(=O)CC(C)(C)C)nccc2c1 [Compound 44, Methyl 1-(3,3-dimethyl-N-(4-(1-methyl-1H-indol-5-yl)benzyl)butanamido)isoquinoline-6-carboxylate] |
| ≤ 1 µM | COC(=O)c1ccc2c(N(Cc3ccc(-c4ccc(OC)cc4)cc3)C(=O)CC(C)(C)C)nccc2c1 [Compound 45, Methyl 1-(N′-((4′-methoxy-[1,1′-biphenyl]-4-yl)methyl)-3,3-dimethylbutanamido)isoquinoline-6-carboxylate] |
| ≤ 1 µM | COC(=O)c1ccc2c(N(Cc3ccc(-c4ccc5c(c4)CCO5)cc3)C(=O)CC(C)(C)C)nccc2c1 [Compound 46, Methyl 1-(N′-(4-(2,3-dihydrobenzofuran-5-yl)benzyl)-3,3-dimethylbutanamido)isoquinoline-6-carboxylate] |
| ≤ 1 µM | COC(=O)c1ccc2c(N(Cc3ccc(-c4ccc5c(c4)OCC5)cc3)C(=O)CC(C)(C)C)nccc2c1 [Compound 47, Methyl 1-(N-(4-(2,3-dihydrobenzofuran-6-yl)benzyl)-3,3-dimethylbutanamido)isoquinoline-6-carboxylate] |
| ≤ 1 µM | COC(=O)c1ccc2c(N(Cc3ccc(-c4ccc5c(c4)OCCO5)cc3)C(=O)CC(C)(C)C)nccc2c1 [Compound 48, Methyl 1-(N-(4-(2,3-dihvdrobenzo[b][1,4]dioxin-6-yl)benzyl)-3,3-dimethylbutanamido)isoquinoline-6-carboxylate] |
| ≤ 1 µM | COC(=O)c1ccc2c(N(Cc3ccc(-c4cnc5c(ccn5C)c4)cc3)C(=O)CC(C)(C)C)nccc2c1 [Compound 49, Methyl 1-(3,3-dimethyl-N-(4-(1-methyl-1H-pyrrolo[2,3-b]pyridin-5-yl)benzyl)butanamido)isoquinoline-6-carboxylate] |
| ≤ 1 µM | CCc1ccc(-c2ccc(CN(C(=O)CC(C)(C)C)c3nccc4cc(C(=O)OC)ccc34)cc2)cc1 [Compound 53, Methyl 1-(N-((4′-ethyl-[1,1′-biphenyl]-4-yl)methyl)-3,3-dimethylbutanamido)isoquinoline-6-carboxylate] |
| ≤ 1 µM | COC(=O)c1ccc2c(N(Cc3ccc(-c4ccc(C)c(Cl)c4)cc3)C(=O)CC(C)(C)C)nccc2c1 [Compound 55, Methyl 1-(N-((3′-chloro-4′-methyl-[1,1′-biphenyl]-4-yl)methyl)-3,3-dimethylbutanamido)isoquinoline-6-carboxylate] |
| ≤ 1 µM | COC(=O)c1ccc2c(N(Cc3ccc(-c4ccc(C(F)F)cc4)cc3)C(=O)CC(C)(C)C)nccc2c1 [Compound 56, Methyl 1-(N-((4′-(difluoromethyl)-[1,1′-biphenyl]-4-yl)methyl)-3,3-dimethylbutanamido)isoquinoline-6-carboxylate] |
| ≤ 1 µM | COCc1ccc(-c2ccc(CN(C(=O)CC(C)(C)C)c3nccc4cc(C(=O)OC)ccc34)cc2)cc1 [Compound 58, Methyl 1-(N-((4′-(methoxymethyl)-[1,1′-biphenyl]-4-yl)methyl)-3,3-dimethylbutanamido)isoquinoline-6-carboxylate] |

— patent publication US10377717B2, “Farnesoid X receptor agonists and uses thereof” (Metacrine, Inc., priority 2015, dated 2019)
